# According to patent publication US9261497B2, “Method of treating cancer with modulators of SCFSkp2” (New York University, priority 2012, dated 2016):
# Experiments:
# p27 in ECC-1 cells = assay: p27 immunoblot in ECC-1 cells (whole cell lysates, nuclear and cytoplasmic fractions); conditions: for Block of E2-induced decrease of p27: ECC-1, control siRNA transfected, 1 nM E2 plus 1 μM Lactacystin or 10 nM ICI 182,780
# Experimental: The endometrial carcinoma cell line (derived from a well-differentiated endometrioid Type I ECA) ECC-1 cells (ATCC, Manassas, Va.) were plated at a density of 3×10^5/well/6-well plate and grown in DMEM:F12 supplemented with 10% FBS (BioWest, Ocala, Fla.). The cell line was passaged in the laboratory for fewer than 6 months after receipt. […] ECAs were plated at a density of 2.2×10^6 cells/6-well Primaria® plates (BD Biosciences, San Jose, Calif.) in McCoys 5A media without phenol red containing 10% charcoal-stripped FBS, 2 mM L-Glutamine (Invitrogen) and antimycotic antibiotic solution (Mediatech, Hendon, Va.).
# For subcellular fractionation, following treatments, cells were separated into nuclear and cytoplasmic fractions using the NE-PER kit (Thermo Scientific), and 10 μg cytoplasmic and nuclear protein fractions were loaded onto SDS-PAGE for immunoblotting. […] The membranes were incubated with peroxidase-conjugated goat anti-rabbit or goat anti-mouse secondary antibodies in TBST (1:2000; Thermo Scientific). […] Protein bands were resolved using the SuperSignal West Dura kit (Thermo Scientific), visualized by exposure to X-ray film (HyBlot; Denville Scientific, Denville, N.J.), and following densitometric scanning (Kodak Logic-100), the protein bands were quantified by normalizing to β-actin and compared to the untreated control, and the values represented by the graphs of relative protein levels compared to actin in each well and shown as % of Vehicle control.
# ECC-1 cells = assay: ECC-1 cell proliferation (MTS assay); format: cell-based, human; conditions: Lactacystin-treated cells
# [1] = system: p27 in 501 Mel, SK-MEL-147, and SK-MEL-173; assay: Immunoblot of steady state protein levels in metastatic melanoma cell lines; format: cell-based, human; conditions: 501 Mel cells; 400 nM
# Experimental: 501 Mel cells were also treated with MG-132 (a proteasome inhibitor) to confirm that p27 and p21 induction were responsive to known UPS inhibitors (FIG. 4A, right). […] Thus, treatment of cells with inhibitors targeting the Skp2-Cks1 interface induces protein levels of specific Skp2-Cks1 substrates.
# Whole cell extracts were prepared and immunoblotted as previously described Dorrello et al., “S6K1- and betaTRCP-mediated Degradation of PDCD4 Promotes Protein Translation and Cell Growth,” Science 314:467-471 (2006), which is hereby incorporated by reference in its entirety. For knockdown of Skp2 or p27, shRNAs were induced with 2 ng/ml doxycycline for 48 hours, with the last 16 hours co-treated with 0.1% Vehicle or 10 μM inhibitors as indicated. For cycloheximide chase, cells were pretreated 16 h with 0.1% Vehicle or 10 μM inhibitors, followed by 20 ng/ml cycloheximide (Sigma) and whole cell extracts collected for each time point. […] Scanning densitometry was performed on immunoblots using Image J software. For cell cycle analysis, cells were treated with 0.1% Vehicle or 10 μM inhibitors for 16 h. 1×10^6 cells were fixed in 70% ethanol for 2 h, treated with 200 μg/ml RNase A (Invitrogen) for 30 minutes, and stained with 20 μg/ml Propidium Iodine (Sigma). All samples were assayed in triplicates. Signal was detected using the Becton Dickson LSRII flow cytometer and cell cycle profiles were analyzed with FloJo.
# Skp2-p27 interaction = target: T1, Skp2-p27 interaction (Homo sapiens, UniProt P61024+Q13309); assay: p27 binding to HA-Skp2 (HA-immunoprecipitation); conditions: 10 μM; HA-Skp2 and Cks1 pretreated before p27-pT187; without ubiquitylation
# T1 construct: made in house; host or cells: cell-free: rabbit reticulocyte lysate (TNT T7 Coupled Reticulocyte Lysate System, Promega) from pcDNA3.1 plasmids
# T1 sequence (Q13309 whole entry): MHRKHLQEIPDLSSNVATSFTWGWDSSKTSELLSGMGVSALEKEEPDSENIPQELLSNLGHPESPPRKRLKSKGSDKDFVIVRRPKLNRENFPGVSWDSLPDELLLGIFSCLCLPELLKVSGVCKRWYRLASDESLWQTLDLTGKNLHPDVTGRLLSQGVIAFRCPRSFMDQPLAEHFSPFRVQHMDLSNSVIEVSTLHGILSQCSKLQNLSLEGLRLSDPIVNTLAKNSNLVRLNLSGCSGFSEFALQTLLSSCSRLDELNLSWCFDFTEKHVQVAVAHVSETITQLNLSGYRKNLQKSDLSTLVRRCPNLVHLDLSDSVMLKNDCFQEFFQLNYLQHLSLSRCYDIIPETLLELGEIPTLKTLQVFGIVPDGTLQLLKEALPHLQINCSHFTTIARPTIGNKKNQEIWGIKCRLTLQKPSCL
# T1 sequence (P61024 whole entry): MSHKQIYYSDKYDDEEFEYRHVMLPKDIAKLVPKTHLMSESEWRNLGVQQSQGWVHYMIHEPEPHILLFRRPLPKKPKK
# T1 sequence (P63208 whole entry partner): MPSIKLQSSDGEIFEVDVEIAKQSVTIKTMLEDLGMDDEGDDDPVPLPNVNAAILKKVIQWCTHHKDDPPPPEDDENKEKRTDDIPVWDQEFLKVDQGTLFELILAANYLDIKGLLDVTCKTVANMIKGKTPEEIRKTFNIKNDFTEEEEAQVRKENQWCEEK
# T1 sequence (Q13616 whole entry partner): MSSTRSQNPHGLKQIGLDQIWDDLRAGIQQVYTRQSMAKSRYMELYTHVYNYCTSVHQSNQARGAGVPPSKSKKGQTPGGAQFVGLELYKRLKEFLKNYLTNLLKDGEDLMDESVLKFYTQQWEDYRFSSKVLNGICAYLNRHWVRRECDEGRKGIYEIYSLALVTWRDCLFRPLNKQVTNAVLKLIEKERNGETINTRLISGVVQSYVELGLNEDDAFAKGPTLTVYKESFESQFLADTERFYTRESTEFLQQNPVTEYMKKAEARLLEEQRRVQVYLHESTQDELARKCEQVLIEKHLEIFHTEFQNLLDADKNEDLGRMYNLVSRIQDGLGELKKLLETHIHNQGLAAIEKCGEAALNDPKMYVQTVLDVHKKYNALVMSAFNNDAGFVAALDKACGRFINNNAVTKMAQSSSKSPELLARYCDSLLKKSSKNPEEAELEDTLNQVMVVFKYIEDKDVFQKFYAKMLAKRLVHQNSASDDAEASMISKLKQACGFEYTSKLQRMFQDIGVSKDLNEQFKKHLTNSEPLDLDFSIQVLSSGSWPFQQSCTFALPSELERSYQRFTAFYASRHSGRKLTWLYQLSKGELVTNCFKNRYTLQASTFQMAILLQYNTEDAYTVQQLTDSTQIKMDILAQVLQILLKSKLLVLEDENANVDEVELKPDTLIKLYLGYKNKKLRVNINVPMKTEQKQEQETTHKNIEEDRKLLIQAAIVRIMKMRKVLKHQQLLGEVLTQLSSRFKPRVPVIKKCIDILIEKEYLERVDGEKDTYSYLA
# T1 sequence (P62877 whole entry partner): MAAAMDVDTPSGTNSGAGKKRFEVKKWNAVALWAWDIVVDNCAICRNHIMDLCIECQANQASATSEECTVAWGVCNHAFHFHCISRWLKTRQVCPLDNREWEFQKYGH
# Experimental: In vitro ubiquitylation assays were incubated with anti-HA affinity matrix (Roche) in IP buffer (50 mM Tris pH 7.6, 150 mM NaCl, 0.1% NP40, and Roche Complete EDTA-free protease tablet) for 16 h at 4° C. Beads were washed 3× with IP buffer and eluted with 2×SDS Sample Buffer (Boston Bioproducts) and 10% Beta-mercaptoethanol. For binding without ubiquitylation, HA-Skp2 IVT (10 μl) and Cks1 IVT (10 μl) were preincubated with anti-HA affinity matrix in IP buffer for 2 hours, with the addition of p27 kinase reaction (10 μl) for another 16 h incubation at 4° C. All reactions were analyzed after SDS/PAGE by western blotting. Where indicated, Skp2 and Cks1 were pretreated with 10 μM inhibitors for 30 minutes. Kinase reactions were performed with p27 IVT (10 μl) and 0.5 μg/ul CyclinE/CDK2 in kinase buffer (50 mM Tris HCL pH 7.5, 10 mM MgCl2, 2 mM ATP, 2.5 μM Okadaic Acid, and 0.6 mM DTT) at 30° C. for 1 h.
# His-6Skp1-Skp2-Cks1 = target: T2, His-6Skp1-Skp2-Cks1 (Homo sapiens, UniProt P61024+Q13309); assay: Differential scanning fluorimetry (protein melt); format: binding; conditions: compound 75 μM; protein 1.5 μM
# T2 construct: His6-tagged human Skp2 (residues 89-424); Human full-length Cks1 was produced as described; made in house
# T2 sequence (Q13309 89-424 limits assumed): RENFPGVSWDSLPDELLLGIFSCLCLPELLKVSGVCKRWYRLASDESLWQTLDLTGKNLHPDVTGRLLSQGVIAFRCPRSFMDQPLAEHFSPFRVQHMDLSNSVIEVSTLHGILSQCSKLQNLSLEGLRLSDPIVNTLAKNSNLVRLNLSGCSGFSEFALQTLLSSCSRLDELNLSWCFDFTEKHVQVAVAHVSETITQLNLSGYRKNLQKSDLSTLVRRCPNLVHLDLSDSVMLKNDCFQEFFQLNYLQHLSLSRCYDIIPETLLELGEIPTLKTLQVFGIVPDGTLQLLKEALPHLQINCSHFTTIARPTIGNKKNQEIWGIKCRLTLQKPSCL
# T2 sequence (P61024 whole entry, the tested form may be a part): as the sequence (P61024 whole entry) above
# Experimental: Protein melt assays were carried out following the manufacturer's protocol on the LightCycler 480 System II (Roche) using Sypro Orange dye (Sigma). Fluorescence (465 nm excitation/580 nm detection) was acquired (10 data points/sec) at a ramp rate of 0.06° C./sec between 20° C. and 85° C. Melting temperatures were calculated using the LightCycler 480 Protein Melt analysis tool (Roche).
# SCF-Skp2 (Skp2-Cks1) = target: T3, SCF-Skp2 (Skp2-Cks1) (Homo sapiens, UniProt P61024+Q13309); assay: In vitro ubiquitylation assay, Skp2-mediated p27 ubiquitylation (Wild-Type Cks1); format: biochemical; conditions: 50 μM compound, immunoblot for p27-(Ub)n
# T3 construct: made in house; host or cells: cell-free: rabbit reticulocyte lysate (TNT T7 Coupled Reticulocyte Lysate System, Promega) from pcDNA3.1 plasmids
# T3 sequence (Q13309 whole entry): as the sequence (Q13309 whole entry) above
# T3 sequence (P61024 whole entry): as the sequence (P61024 whole entry) above
# T3 sequence (P63208 whole entry partner): as the sequence (P63208 whole entry partner) above
# T3 sequence (Q13616 whole entry partner): as the sequence (Q13616 whole entry partner) above
# T3 sequence (P62877 whole entry partner): as the sequence (P62877 whole entry partner) above
# Experimental: The 96 hits were tested in an in vitro ubiquitylation assay driven by in vitro transcribed/translated Skp2, Cks1, and p27 (Sitry et al., “Three Different Binding Sites of Cks1 are Required for p27-ubiquitin Ligation,” J. Biol. Chem. 277:42233-42240 (2002)). Assay sensitivity was established for various criteria (FIG. 1B): Enhanced ubiquitylation with Cks1 (lane 2), kinase activity requirement (lane 3), and responsiveness to known inhibitors of Cullin (lane 5) or Cdk2 (lane 6) activity (Meijer et al., “Biochemical and Cellular Effects of Roscovitine, a Potent and Selective Inhibitor of the Cyclin-dependent Kinases cdc2, cdk2 and cdk5,” Eur. J. Biochem. 243:527-536 (1997); Soucy et al., “An Inhibitor of NEDD8-activating Enzyme as a New Approach to Treat Cancer,” Nature 458:732-736 (2009), which are hereby incorporated by reference in their entirety). Compounds showing at least 50% inhibition of Skp2-mediated p27 ubiquitylation (FIG. 1C) were counter-screened for inactivity against two anti-target E3 ligases: MDM2 and SCF-βTrCP (FIGS. 6A-B). Compounds C1 and C2 were identified from the primary VLS and C16 and C20 were identified from a second VLS (FIG. 2).
# In vitro reconstituted assays were performed as previously described (Dorrello et al., “S6K1- and betaTRCP-mediated Degradation of PDCD4 Promotes Protein Translation and Cell Growth,” Science 314:467-471 (2006), which is hereby incorporated by reference in their entirety) with the exceptions of the use of (1) unlabeled proteins (wild-type and mutant Skp2 and Cks1, p27, Flag-βTrCP, and HA-PDCD4) generated by in vitro transcription-translation (TNT T7 Coupled Reticulocyte Lysate System, Promega); (2) chain elongation with non-methylated ubiquitin; and (3) immunoblotting to detect poly-ubiquitylation. The following reagents were obtained from Boston Biochem: UBE1, His-UbcH3, His-UbcH5c, Ubiquitin, and Ubiquitin Aldehyde. Additional reagents include CDK2/CyclinE1 (Sigma-Aldrich), S6K (Invitrogen), Okadaic acid (Sigma), and DMSO (Sigma-Aldrich). For ubiquitin charging, UBE1 (100 nM) and His-UbcH3 (10 ng/μl) were incubated with ubiquitin (2.5 μg/μl), ATP (2 mM), and 10 μM […] of inhibitors or Vehicle control for 60 min at 30° C. Reactions were stopped in nondenaturing 2× Sample Buffer, with the addition of 10% Beta-mercaptoethanol as indicated, and analyzed by Western blotting.
structure (smiles),measurement,setting,value
"C[C@]12CC[C@@H]3c4ccc(O)cc4C[C@@H](CCCCCCCCC[S+]([O-])CCCC(F)(F)C(F)(F)F)[C@H]3[C@@H]1CC[C@@H]2O (some centres unmarked) [ICI 182,780, reference compound]",Block of E2-induced decrease of p27,p27 in ECC-1 cells; 18 h,nearly completely blocked
same,Effect on E2-induced decrease in nuclear p27,"p27 in ECC-1 cells; ECC-1, E2 plus 10 nM ICI 182,780, 18 h",to the level of untreated control
"CC(=O)N[C@@H](CSC(=O)[C@]1([C@@H](O)C(C)C)NC(=O)[C@H](C)[C@@H]1O)C(=O)O [Lactacystin, reference compound]",Inhibition of proliferation,ECC-1 cells,36%
same,p27 in nuclear and cytoplasmic fractions,p27 in ECC-1 cells; ECC-1 (FIG. 11D),increases p27 in both subcellular fractions
same,Block of E2-induced decrease of p27,p27 in ECC-1 cells; 18 h,completely blocked
"NS(=O)(=O)OC[C@@H]1C[C@@H](n2ccc3c(N[C@H]4CCc5ccccc54)ncnc32)C[C@@H]1O [MLN-4924, reference compound]",Neddylation of Cul1,[1],inhibited neddylation of Cul1
"COc1cccc(-c2cc(=O)c3ccccc3o2)c1N [PD 98059, PD98059, reference compound]",p27 less than control,"p27 in ECC-1 cells; ECC-1, E2 plus 20 μM PD98059, 18 h",24%
"COc1ccc(Br)cc1C=C1SC(=S)N(Cc2cccnc2)C1=O [UM-C1, reference compound]",p27 binding to Skp2,Skp2-p27 interaction,lost the ability to inhibit p27 from binding to Skp2
same,Shift of melting temperature (Tm) of purified protein complex,His-6Skp1-Skp2-Cks1,not
"COCCCN1C(=O)C(=Cc2ccccc2O)C(C(=O)OC)=C1C [UM-C2a, reference compound]",Inhibition of Skp2-mediated p27 ubiquitylation,SCF-Skp2 (Skp2-Cks1),partially reduced p27 ubiquitylation
"CCN1C(=O)C(=Cc2ccccc2O)C(C(=O)OC)=C1C [UM-C2b, reference compound]",p27 binding to Skp2,Skp2-p27 interaction,lost the ability to inhibit p27 from binding to Skp2
